The subject of the test is wheat rust fungus (Puccinia recondita). Nature of the test: Test Example 2: wheat rust, foliar spray before inoculation, lesion area. Format: in vivo. To be noted: 200 ppm foliar spray, wheat (Shirogane), inoculated 5 days after spraying, formulation per Formulation Example 6.

Bounds are passed on as bounds.

Consider `COC(=O)Nc1ccccc1COc1ccc(-c2ccccn2)cc1` [methyl N-(2-{[4-(pyridine-2-yl)phenoxy)methyl}phenyl)carbamate], for which the “area of the lesion relative to untreated wheat” value is reported as at least 70%.

(Values after US10385021B2, “Carbamate compound and use thereof” (SUMITOMO CHEMICAL COMPANY, LIMITED, priority 2015, dated 2019).)
